Assay results as given in patent US20240043427A1 (Gilead Sciences, Inc., priority 2020, published 2024).

Key:
[1] = molecular target: T1, CD73 (Homo sapiens (Human), UniProt P21589); type: biochemical; conditions: 1 mM NaH2PO4 in enzyme buffer, CD73 0.3 nM, AMP 15 uM
[2] = molecular target: T1, CD73; assay: MDA-MB-231 Cell Based CD73 Activity Assay (DMEM); conditions: MDA-MB-231-GFP cells, DMEM medium with 10% human plasma, 200 uM AMP

T1 sequence (P21589 27-574): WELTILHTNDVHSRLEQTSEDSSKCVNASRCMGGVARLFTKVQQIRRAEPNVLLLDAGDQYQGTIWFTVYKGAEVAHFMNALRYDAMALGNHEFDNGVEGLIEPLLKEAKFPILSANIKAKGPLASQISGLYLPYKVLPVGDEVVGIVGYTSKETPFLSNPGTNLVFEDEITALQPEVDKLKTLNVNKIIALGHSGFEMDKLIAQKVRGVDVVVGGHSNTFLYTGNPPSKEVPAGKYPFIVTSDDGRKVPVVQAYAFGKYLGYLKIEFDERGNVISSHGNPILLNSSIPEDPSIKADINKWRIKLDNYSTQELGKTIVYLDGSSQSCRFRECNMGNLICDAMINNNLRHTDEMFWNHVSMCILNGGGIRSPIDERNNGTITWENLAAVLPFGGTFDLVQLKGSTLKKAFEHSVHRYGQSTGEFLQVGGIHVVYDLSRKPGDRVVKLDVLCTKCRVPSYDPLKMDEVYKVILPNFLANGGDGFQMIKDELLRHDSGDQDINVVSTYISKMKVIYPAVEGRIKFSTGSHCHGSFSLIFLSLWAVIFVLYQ

Compound	IC50 [1] [µM]	EC50 [2] [µM]
CC1CN(c2cc(-c3c[nH]c(=O)[nH]c3=O)nc3c(F)cnn23)CC1(F)F (stereo not drawn) [Example 222, 5-(7-(3,3-difluoro-4-methylpyrrolidin-1-yl)-3-fluoropyrazolo[1,5-a]pyrimidin-5-yl)pyrimidine-2,4(1H,3H)-dione]	0.0174	0.133
O=c1[nH]cc(-c2cc(N3C[C@H]4CCC[C@H]4C3)c3nccn3n2)c(=O)[nH]1 [Example 223, 5-(8-((3aR,6aS)-hexahydrocyclopenta[c]pyrrol-2(1H)-yl)imidazo[1,2-b]pyridazin-6-yl)pyrimidine-2,4(1H,3H)-dione]	0.0314	0.0664
O=c1[nH]cc(-c2cc(N3CC4CC4C3)c3nccn3n2)c(=O)[nH]1 (stereo not drawn) [Example 225, 5-(8-(3-azabicyclo[3.1.0]hexan-3-yl)imidazo[1,2-b]pyridazin-6-yl)pyrimidine-2,4(1H,3H)-dione]	0.0152	0.106
O=c1[nH]cc(-c2cc(NC3CCC(F)(F)C3)c3nccn3n2)c(=O)[nH]1 (stereo not drawn) [Example 227, 5-(8-((3,3-difluorocyclopentyl)amino)imidazo[1,2-b]pyridazin-6-yl)pyrimidine-2,4(1H,3H)-dione]	> 0.25	0.487
O=c1[nH]cc(-c2cc(N3CC[C@H](C(F)F)C3)c3nccn3n2)c(=O)[nH]1 [Example 229, (S)-5-(8-(3-(difluoromethyl)pyrrolidin-1-yl)imidazo[1,2-b]pyridazin-6-yl)pyrimidine-2,4(1H,3H)-dione]	0.0569	0.175
O=c1[nH]cc(-c2cc(N3CC(Oc4ccc(C(F)F)cn4)C(F)(F)C3)c3nccn3n2)c(=O)[nH]1 (stereo not drawn) [Example 232, 5-(8-(4-((5-(difluoromethyl)pyridin-2-yl)oxy)-3,3-difluoropyrrolidin-1-yl)imidazo[1,2-b]pyridazin-6-yl)pyrimidine-2,4(1H,3H)-dione]	0.00215	0.00618
O=C(Nc1ccccc1F)OC1CN(c2cc(-c3c[nH]c(=O)[nH]c3=O)nn3ccnc23)CC1(F)F (stereo not drawn) [Example 233, 1-(6-(2,4-dioxo-1,2,3,4-tetrahydropyrimidin-5-yl)imidazo[1,2-b]pyridazin-8-yl)-4,4-difluoropyrrolidin-3-yl (2-fluorophenyl)carbamate]	0.00117	0.0008

The remaining lines, values ahead:

IC50 [1] [µM]	EC50 [2] [µM]	Compound
0.0119	0.0326	O=c1[nH]cc(-c2cc(N3CC4C(C3)C4(F)F)c3nccn3n2)c(=O)[nH]1 (stereo not drawn) [Example 224, 5-(8-(6,6-difluoro-3-azabicyclo[3.1.0]hexan-3-yl)imidazo[1,2-b]pyridazin-6-yl)pyrimidine-2,4(1H,3H)-dione]
0.121	0.41	O=c1[nH]cc(-c2cc(NC3CCCC3)c3nccn3n2)c(=O)[nH]1 [Example 226, 5-(8-(cyclopentylamino)imidazo[1,2-b]pyridazin-6-yl)pyrimidine-2,4(1H,3H)-dione]
0.0312	0.146	CC1(C)C2CN(c3cc(-c4c[nH]c(=O)[nH]c4=O)nn4ccnc34)CC21 (stereo not drawn) [Example 228, 5-(8-(6,6-dimethyl-3-azabicyclo[3.1.0]hexan-3-yl)imidazo[1,2-b]pyridazin-6-yl)pyrimidine-2,4(1H,3H)-dione]
0.0395	0.0647	O=c1[nH]cc(-c2cc(N3CC[C@@H](C(F)F)C3)c3nccn3n2)c(=O)[nH]1 [Example 230, (R)-5-(8-(3-(difluoromethyl)pyrrolidin-1-yl)imidazo[1,2-b]pyridazin-6-yl)pyrimidine-2,4(1H,3H)-dione]
0.00162	0.002	N#Cc1ccc(OC2CN(c3cc(-c4c[nH]c(=O)[nH]c4=O)nn4ccnc34)CC2(F)F)cc1 (stereo not drawn) [Example 231, 4-((1-(6-(2,4-dioxo-1,2,3,4-tetrahydropyrimidin-5-yl)imidazo[1,2-b]pyridazin-8-yl)-4,4-difluoropyrrolidin-3-yl)oxy)benzonitrile]
